In publication PMC6095594, “Pre-clinical evaluation of quinoxaline-derived chalcones in tuberculosis” (PLoS ONE, 2018):
≈ marks a conversion by molar mass, not a printed value. Like-named read-outs stand apart in the source and are kept apart here.

Legend:
[1] = system: M. tuberculosis drug-resistant clinical isolate CDCT-10; assay type: cell-based, Mycobacterium tuberculosis
[2] = system: M. tuberculosis pNIP::KatG(S315T); assay type: cell-based, Mycobacterium tuberculosis
[3] = system: M. tuberculosis drug-resistant clinical isolate CDCT-27; assay type: cell-based, Mycobacterium tuberculosis
[4] = system: M. tuberculosis drug-resistant clinical isolate CDCT-16; assay type: cell-based, Mycobacterium tuberculosis
[5] = system: M. tuberculosis pNIP::InhA(S94A); assay type: cell-based, Mycobacterium tuberculosis
[6] = system: M. tuberculosis drug-resistant clinical isolate CDCT-16; details: cited from earlier work
[7] = system: M. tuberculosis drug-resistant clinical isolate CDCT-10; details: cited from earlier work
[8] = system: M. tuberculosis drug-resistant clinical isolate CDCT-27; details: cited from earlier work

Row | Structure (SMILES) | MIC [1] | MIC [2] | MIC [3] | MIC [4] | MIC [5] | MIC [6] | MIC [7] | MIC [8]
1 | COc1ccc(OC)c(C(=O)/C=C/c2ccc3nccnc3c2)c1 [N9] | 1.56 µg/mL (≈ 4.87 µM) | 1.56 µg/mL (≈ 4.87 µM) | 3.13 µg/mL (≈ 9.77 µM) | 3.13 µg/mL (≈ 9.77 µM) | 3.13 µg/mL (≈ 9.77 µM) | – | – | –
2 | COc1cc(C(=O)/C=C/c2ccc3nccnc3c2)cc(OC)c1OC [N15] | 3.13 µg/mL (≈ 8.93 µM) | 3.13 µg/mL (≈ 8.93 µM) | 6.25 µg/mL (≈ 17.8 µM) | 6.25 µg/mL (≈ 17.8 µM) | 3.13 µg/mL (≈ 8.93 µM) | – | – | –
3 | CO[C@H]1/C=C/O[C@@]2(C)Oc3c(C)c(O)c4c(O)c(c(/C=N/N5CCN(C)CC5)c(O)c4c3C2=O)NC(=O)/C(C)=C\C=C\[C@H](C)[C@H](O)[C@@H](C)[C@@H](O)[C@@H](C)[C@H](OC(C)=O)[C@@H]1C [RIF, Rifampicin] | – | – | – | – | – | >100 µg/mL | >100 µg/mL | <0.2 µg/mL
4 | NNC(=O)c1ccncc1 [INH, isoniazid, reference compound] | 6.25 µg/mL (≈ 45.6 µM) | >100 µg/mL | 25 µg/mL (≈ 182 µM) | >100 µg/mL | 12.5 µg/mL (≈ 91.1 µM) | – | – | –
5 | COc1cccc(C(=O)/C=C/c2ccc3nccnc3c2)c1 [N23] | 2.5 µg/mL (≈ 8.61 µM) | 1.25 µg/mL (≈ 4.31 µM) | 5 µg/mL (≈ 17.2 µM) | 5 µg/mL (≈ 17.2 µM) | 2.5 µg/mL (≈ 8.61 µM) | – | – | –
